Assay results from patent US20090233841A1, “ANALGESIC CONJUGATES” (Regents of the University of Minnesota, priority 2005, published 2009).

How the values were obtained:
mice = assay: Conditioned place preference (CPP); format: in vivo, mouse; conditions: for conditioned place preference: IV
Description: Conditioned place preference (CPP) is a technique used to measure the rewarding properties of a drug. Two sides of the CPP apparatus have both visual and tactile differences, so that a mouse can tell the difference between sides. On the first day of testing, the time each mouse spends in either side of the apparatus is measured. For the next three days, the drug is “paired” with one side or the other by injecting the mouse and immediately confining it to that side. On the final day, the amount of time the mouse spends in the drug-paired side is determined and the percent change is calculated. If the percent change is positive, the drug is thought to be rewarding and likely to be abused by humans.
Methods The CPP apparatus used was a plastic box, approximately 12 inches×6 inches×6 inches (1/w/h). One half of the box was transparent with a scored or textured floor and the other half of the box had blue vertical stripes with a smooth floor. The box was divided such that the mice could go from one side to the other through an opening or be confined to one side.
Preconditioning On day 1, each mouse was allowed to explore both sides of the box for 15 minutes to expose them to the novel environment. On day 2, each mouse was placed into the box for 15 minutes and the amount of time the mouse spent in each side of the box was recorded. Mice that spend more than 9 minutes in one side of the box are excluded (two of 32 mice were excluded).
Conditioning On day 3, each mouse was given two sets of IV injections. First, the mice were injected with saline and randomly confined to one side of the box for 30 minutes. The mice were then injected with the drug (or saline, for control mice) and confined to the other side of the box (“drug-paired side”) for 30 minutes. This conditioning paradigm was repeated for three days.
Postconditioning On day 6, the amount of time the mouse spent in each side of the box was recorded. For the results, the amount of time the mouse spent in the drug-paired side during preconditioning was subtracted from the time spent in the drug-paired side during post-conditioning to reach a “score”: Score=Postconditioning time in drug-paired side-Preconditioning time spent in drug-paired side.
FIG. 1 depicts the percent change in time spent in the drug-paired side. The asterisks in the graph indicate significant difference from saline (p<0.05).

male ICR mice [1] = assay: Mouse radiant heat tail flick assay after acute ICV administration; format: in vivo; conditions: tail flick, ICV, Table 2
Description: Acute drug administration. Drugs were dissolved in sterile saline (0.9% NaCl). Animals were anesthetized with halothane and drugs were administered with a Hamilton syringe mated to a shortened (3 mm) 27-g needle in a volume of 4 μl by ICV injection into the lateral cerebral ventricle (Haley et al., 1957). The injection site was 1.6 mm lateral and 0.6 mm caudal to bregma.
Antinociceptive testing. […] Mice were tested once before injection (control time).

male ICR mice [2] = assay: GI transit inhibition (charcoal meal) after IV administration; format: in vivo, mouse
male ICR mice [3] = assay: Physical dependence: naloxone-precipitated withdrawal jumping after chronic ICV infusion; format: in vivo, mouse; conditions: average jumps in 10 minutes after naloxone 1 mg/kg sc, after 3-day ICV infusion
Description: (§1) Chronic administration To investigate tolerance and dependence associated with these conjugates, chronic ICV administration studies were performed. The compound of interest was administered ICV via a cannula using an osmotic minipump for 3 days, as previously described (Gomori et al., 2003; Mashiko et al., 2003). Withdrawal was measured by administering naloxone (1 mg/kg; subcutaneous (sc)) and counting the naloxone-precipitated jumps for 10 minutes. Tolerance was determined by administering challenge doses of the compound after chronic infusion for 3 days, and determining the chronic ED50 value at that time.
(§2) Chronic ICV infusion. Osmotic minipumps (model 1003D, Alzet, Durect Corporation, Cupertino, Calif.) were filled with saline or the drug to be tested. The dose of each drug was twelve times its ED50 (nmol)/hour. The minipumps were connected by a 1.6-1.8 cm length of PE-60 tubing to a 3-mm long cannula (osmotic pump connector cannula, Plastics One, Roanoke, Va.) and primed in sterile saline at 37° C. overnight.
(§3) The next day, mice were anesthetized with Avertin (2,2,2-tribromoethanol (370 mg/kg, IP)/tert amyl alcohol (0.16 mg/kg, IP)) before surgery. The scalp was shaved and an incision was made along the midline of the scalp. Hemostats were used to make a pocket under the skin between the shoulder blades. The skull was scraped clean of periosteum so that the cannula pedestal would properly adhere to the skull. A micro drill (Fine Science Tools Inc., Foster City, Calif.) was used to drill a hole approximately 1.6 mm lateral and 0.6 mm caudal to bregma. The minipump was placed between the shoulder blades, the cannula was inserted in the drilled hole into the lateral ventricle, and the cannula pedestal was affixed to the skull with cyanoacrylate glue. The animals were allowed to recover on a heating pad (Fine Science Tools, Foster City, Calif.) and were returned to their cages in the animal facility for three days.
Testing for dependence and tolerance. The development of physical dependence was assessed by quantifying withdrawal jumping observed during precipitated withdrawal (Way et al., 1969) on the fourth day after surgery. Mice were injected with naloxone (1 mg/kg, sc) and placed into Plexiglas cylinders for 10 minutes. During those 10 minutes, vertical jumps were counted as withdrawal signs.

male ICR mice [4] = assay: Mouse tail flick assay after IV administration
Description: Antinociceptive testing. Antinociception was evaluated by the radiant heat tail flick assay (D'Amour et al., 1941). Briefly, a beam of light was focused on the mouse tail and the time until the tail flicked was measured. Each animal served as its own control and was used only once. Mice were tested once before injection (control time). After injection, the mice were tested at the time of peak drug response (drug time), as determined by pilot time course studies. The light intensity was adjusted so that control times were between 1.5 and 2.5 s. A 10 second cutoff drug time was set to minimize the risk of tissue damage. Percent maximum possible effect (% MPE) was calculated as follows (Dewey et al., 1970): […]
Graded dose response curves of at least 4 doses with at least 8 mice per dose were generated from the % MPE data.
Methods Drugs were administered IV via the tail vein in a volume of 100 μl to male ICR mice. Fifteen minutes later, antinociception was measured by the tail flick assay and charcoal meal (300 μl, oral) was administered by gavage. Thirty minutes after the charcoal meal., the mice were sacrificed by halothane overdose and the distance the charcoal traveled relative to the entire length of the GI tract was compared to the distance traveled in control animals injected with saline. The conjugates tested (MDAN-16, MDAN-19, MDAN-20, and MDAN-21) had linker lengths of 19, 23, 24, and 25 Å.

male ICR mice [5] = assay: Tolerance: tail flick ED50 after 3-day chronic ICV infusion (osmotic minipump); format: in vivo, mouse
Description: as §1, §2, §3
To test the degree of tolerance developed, the osmotic minipump was removed and the mice were returned to their cages for four hours. The mice were then injected with the test drug into the contralateral lateral cerebral ventricle and antinociception was measured with the tail flick test as described above.

SMILES: CN1CC[C@]23c4c5ccc(O)c4O[C@H]2[C@@H](O)C=C[C@H]3[C@H]1C5 [Morphine, reference compound]
- conditioned place preference (mice; 2× the ED90 analgesic dose): exhibiting a conditioned place preference
- conditioned place preference (mice; 4× the ED90 analgesic dose): demonstrated conditioned place preference
- conditioned place preference (summary statement) (mice; dose not restated): produced conditioned place preference
- ED50 ICV (nmol) (male ICR mice [1]): 4.1 (3.7-4.8) nmol
- efficacy in the GIT inhibition assay (male ICR mice [2]): fully efficacious
- GIT inhibition ED50 (male ICR mice [2]; charcoal meal 15 min after drug): 129 (115-142) nmol
- # of Jumps (SEM), naloxone-precipitated withdrawal (male ICR mice [3]): 100 (15)
- # of Jumps (SEM), naloxone-precipitated withdrawal (male ICR mice [3]; listed as morphine): 100±15
- efficacy in the TF test (male ICR mice [4]; IV, tail flick 15 min after drug): fully efficacious
- decrease in potency when administering IV versus ICV (male ICR mice [4]; tail flick ED50 IV versus ICV): ~40 ×
- ED50 IV (nmol) (male ICR mice [4]; tail flick, IV): 168 (146-178) nmol
- Chronic ED50 nmol (95% C.L.) (male ICR mice [5]; compound chronically administered ICV for 3 days, then challenge doses): 26.80 (20.82-32.78) nmol
- Saline ED50 nmol (95% C.L.) (male ICR mice [5]; saline chronically administered ICV for 3 days, then challenge doses of compound): 4.54 (3.51-5.56) nmol
